This is an account of results in the NIST ThermoML archive (doi:10.1016/j.jct.2018.07.025).

± gives the expanded uncertainty stated by the source.

For series [1] the following is noted: Crystal; DTA.
Series [2] can be described thus: Molar enthalpy of transition or fusion. Particulars: Crystal; DSC.

On to `COC(=O)N(O)c1ccccc1COc1ccn(-c2ccc(Cl)cc2)n1`, for which the Normal melting temperature in series [1] was determined as 143.30 ± 1.1 °C. For the same compound, in series [2], the “Molar enthalpy of transition or fusion” value was determined as 12.3 ± 0.311 kcal/mol.

Consider `COC(=O)N(OC)c1ccccc1COc1ccn(-c2ccc(Cl)cc2)n1` [Pyraclostrobin], for which, in series [1], the Normal melting temperature was determined as 60.60 ± 1.1 °C. Moreover, the “Molar enthalpy of transition or fusion” value in series [2] is 7.22 ± 0.239 kcal/mol.
